Assay results from article PMC10824102, “Identification of small molecule inhibitors of G3BP-driven stress granule formation” (The Journal of Cell Biology, 2024).

Columns and labels:
[1] = test system: preformed stress granules in U2OS cells stably expressing G3BP1-GFP; assay: Post-addition: dissolution of heat stress-induced stress granules; type: cell-based; conditions: for immediate reduction in stress granule area (preformed granules): 50 μM added after 25 min of 43°C heat stress; for stress granule disassembly during recovery at 37°C: 50 μM, compared with cells treated with inactive enantiomers
Description: (§1) For post-addition of compounds, U2OS cells stably expressing G3BP1-GFP were seeded into eight-well Lab-Tek chambered cover glass (Nunc) for sodium arsenite experiments or 35-mm glass-bottom dishes (MatTek) for heat shock experiments. Immediately prior to the experiment, media was replaced with FluoroBrite DMEM media (Gibco) in each well supplemented with 10% FBS and 4 mM L-glutamine; for sodium arsenite experiments, arsenite was added at a final concentration of 250 μM. Cells were then placed on a microscope on which 37°C temperature and 5% CO2 were maintained using a Bold Line Cage Incubator (Okolab) and an objective heater (Bioptechs), and 5–10 xy fields were stored. For sodium arsenite experiments, acquisition began immediately after finding all xy positions, 4 min after the addition of sodium arsenite. 30 min after arsenite was added, 250 μl FluoroBrite DMEM with 250 μM sodium arsenite and 0.1 mM (2×) G3I compound (vortexed for 5 s) was added to the sample. For heat shock experiments, each xy position was imaged every minute. At 2 min into the acquisition, the objective heater was ramped to 43°C. Following this, 250 μM (5×) G3I compound was prepared in FluoroBrite DMEM and vortexed for 15 s. This solution was kept on a 47°C heater near the microscope along with a pipette tip. At 27 min into the acquisition (25 min into heat shock), 250 μl of the prewarmed solution was added to the cells using the prewarmed tip. We note that the solution was heated to 47°C to compensate for the rapid heat loss when adding the solution. At 32 min into the acquisition (30 min heat shock), the heat was ramped down to 37°C. All imaging was acquired on a Yokogawa CSU W1 spinning disk attached to a Nikon Ti2 eclipse with a Photometrics Prime 95B camera using Nikon Elements software (v5.20.00 to v5.21.02). Imaging was performed through a Nikon Plan Apo 60× 1.40 NA oil objective with Immersol 518 F (refractive index 1.518; Zeiss), and Perfect Focus 2.0 (Nikon) was engaged for all captures.
Automated granule detection and measurement were performed using a combination of ilastik and CellProfiler software. Briefly, ND2 multipoint timelapse files were resaved as image sequences in Fiji with the Bio-Formats plugin so that individual frames of the movies could be treated as individual images for analysis. From there, pixel classification in ilastik was used to segment both stress granules and the total cellular area within the field using the G3BP1-GFP channel via machine learning. These segmentations, along with the original G3BP1-GFP image, were input into CellProfiler, where objects were defined using the masks from ilastik.

[2] = test system: preformed stress granules in U2OS cells stably expressing G3BP1-GFP; assay: Post-addition: dissolution of preformed arsenite-induced stress granules; type: cell-based; conditions: 50 μM added after 30 min of 250 μM NaAsO2
Description: as §1, with “At 27 min into the acquisition (25 min into heat shock), 250 μl of the prewarmed solution was added to the cells using the prewarmed tip. We note that the solution was heated to 47°C to compensate for the rapid heat loss when adding the solution. At 32 min into the acquisition (30 min heat shock), the heat was ramped down to 37°C. All imaging was acquired on a Yokogawa CSU W1 spinning disk attached to a Nikon Ti2 eclipse with a Photometrics Prime 95B camera using Nikon Elements software (v5.20.00 to v5.21.02). Imaging was performed through a Nikon Plan Apo 60× 1.40 NA oil objective with Immersol 518 F (refractive index 1.518; Zeiss), and Perfect Focus 2.0 (Nikon) was engaged for all captures.” left out

[3] = target: T1, interaction between G3BP1 and endogenous caprin 1 (Homo sapiens, UniProt Q13283); assay: Coimmunoprecipitation of G3BP1-GFP with endogenous caprin 1 in U2OS lysates; type: biochemical; conditions: increasing concentrations added to U2OS G3BP1-GFP lysates, GFP IP
T1 construct: expressed in transfected cells; host or cells: U2OS cells stably expressing G3BP1-GFP (lysate)
Description: U2OS cells expressing G3BP1-GFP were grown in 3-cm dishes to 100% confluency, at which point cells were collected and pelleted at 400 × g for 5 min. Pellets were either stored at −80°C or processed the same day by lysing with 200 μl in vivo lysis buffer (150 mM NaCl, 50 mM Tris [pH 7.5], 1 mM EDTA, 0.5% NP-40, and 10% glycerol, supplemented with 1 protease inhibitor tablet [11836170001; Roche]). Lysates were centrifuged at 13,000 × g at 4°C for 15 min, after which supernatants were transferred to a new tube and diluted with 200 μl lysis buffer containing indicated concentrations of G3I compounds. The mixture was then incubated with GFP-Trap (ChromoTek GFP-Trap Magnetic Agarose; Proteintech; gtma) for 2 h at 4°C. Beads were washed three times with lysis buffer, then incubated with 1× SDS sample buffer supplemented with 10% 2-mercaptoethanol, and boiled for 5 min at 95°C. Lysates were subjected to SDS-PAGE and then immunoblotted.
Samples were separated by SDS-PAGE and transferred to membranes. […] Membranes were visualized and quantified with an Odyssey Fc imaging system (LI-COR) and normalized to the amount of G3BP1 immunoprecipitated.

T1 sequence (Q13283 whole entry): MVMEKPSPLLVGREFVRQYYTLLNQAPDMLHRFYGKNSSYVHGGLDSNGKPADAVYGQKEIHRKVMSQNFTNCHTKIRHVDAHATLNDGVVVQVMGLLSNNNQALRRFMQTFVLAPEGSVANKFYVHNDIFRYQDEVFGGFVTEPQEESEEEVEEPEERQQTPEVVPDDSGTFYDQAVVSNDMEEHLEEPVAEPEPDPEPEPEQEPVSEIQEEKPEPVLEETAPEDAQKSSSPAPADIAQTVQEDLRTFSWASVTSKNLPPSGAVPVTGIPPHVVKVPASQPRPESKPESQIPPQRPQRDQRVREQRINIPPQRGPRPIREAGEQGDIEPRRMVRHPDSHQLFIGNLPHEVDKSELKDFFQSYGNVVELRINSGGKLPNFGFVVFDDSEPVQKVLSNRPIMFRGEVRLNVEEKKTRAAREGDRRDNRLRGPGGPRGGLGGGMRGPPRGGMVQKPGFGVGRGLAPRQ

Compound: COCCC(NC(=O)C(C)NC(=O)C(NC(=O)C(NC(=O)C(F)CC(C)(C)C)C(C)(C)O)C(C)c1ccccc1)C(=O)N(C)Cc1ccccc1 (centres unmarked) [G3Ia]
- immediate reduction in stress granule area (preformed granules) [1]: ~54%
- stress granule disassembly during recovery at 37°C [1]: completed disassembly faster
- reduction of stress granule area (preformed granules) [2]: ~74%

Compound: CC(NC(=O)C(NC(=O)C(NC(=O)CCC(C)(C)C)C(C)(C)O)C(C)c1ccccc1)C(=O)N1CCCC1c1ccccc1 (centres unmarked) [G3Ib]
- immediate reduction in stress granule area (preformed granules) [1]: ~68%
- stress granule disassembly during recovery at 37°C [1]: completed disassembly faster
- interaction between G3BP1 and endogenous caprin 1 [3]: dose-dependent reduction
- reduction of stress granule area (preformed granules) [2]: ~84%

Compound: CC(NC(=O)C(NC(=O)C(NC(=O)CCC(C)(C)C)C(C)(C)O)C(C)c1ccccc1)C(=O)N1CCCC1c1ccccc1 (centres unmarked) [G3Ib′]
- interaction between G3BP1 and endogenous caprin 1 [3]: no such effect
